Source: patent publication US20090082326A1, “SOLUBLE DOSAGE FORMS CONTAINING CEPHEM DERIVATIVES SUITABLE FOR PARENTERAL ADMINISTRATION” (Forest Laboratories Holdings Limited, priority 2007, published 2009)

Key:
Type in all cases: physicochemical
[1] = One hour kinetic solubility in DL arginine mixtures; conditions: 25 °C, aqueous buffer, thermodynamic from solid
[2] = Aqueous solubility (stated in the description); conditions: water
[3] = One hour kinetic solubility in histidine mixtures; conditions: USP buffer with histidine, 25 °C, aqueous buffer, thermodynamic from solid
[4] = One hour kinetic solubility in acetic acid/sodium acetate ion mixtures; conditions: 25 °C, thermodynamic from solid
[5] = One hour kinetic solubility in L-arginine mixtures; conditions: 25 °C, aqueous buffer, thermodynamic from solid
[6] = One hour kinetic solubility in citric acid/sodium citrate ion mixtures; conditions: 25 °C, aqueous buffer, thermodynamic from solid
[7] = pH solubility profile: one hour and three hour kinetic solubility in USP buffers at 0.05 M; conditions: aqueous buffer, thermodynamic from solid; for solubility at 1 h / solubility at 3 h: USP buffer 0.05 M, 25° C.

CC(=O)[O-].CCO/N=C(\C(=O)N[C@@H]1C(=O)N2C(C(=O)O)=C(Sc3nc(-c4cc[n+](C)cc4)cs3)CS[C@H]12)c1nsc(NP(=O)(O)O)n1.O [ceftaroline fosamil, (6R,7R)-7-[[2(Z)-ethoxyimino-[5-(phosphonoamino)-1,2,4-thiadiazol-3-yl]acetyl]amino]-3-[[4-(1-methyl-pyridinium-4-yl)thiazol-2-yl]sulfanyl]-8-oxo-5-thia-1-azabicyclo[4.2.0]oct-2-en-2-carboxylate monoacetate monohydrate]
solubility at 1 h ([1]; DL arginine mixtures, at DL arginine concentrations of 1.0 M and higher, read-out: solubility): > 200 mg/mL
solubility at 1 h ([1]; USP buffer with DL arginine, DL arginine 0.05 M, 25° C., read-out: Solubility at 1 hr): 13 mg/mL
solubility at 1 h ([1]; USP buffer with DL arginine, DL arginine 0.1 M, 25° C., read-out: Solubility at 1 hr): 19 mg/mL
solubility at 1 h ([1]; USP buffer with DL arginine, DL arginine 0.5 M, 25° C., read-out: Solubility at 1 hr): 142 mg/mL
solubility at 1 h ([1]; USP buffer with DL arginine, DL arginine 1.0 M, 25° C., read-out: Solubility at 1 hr): 233 mg/mL
solubility at 1 h ([1]; USP buffer with DL arginine, DL arginine 2.0 M, 25° C., read-out: Solubility at 1 hr): 226 mg/mL
solubility [2]: ~36 mg/mL
solubility at 1 h ([3]; histidine 0.05 M): 43 mg/mL
solubility at 1 h ([3]; histidine 0.1 M): 75 mg/mL
solubility at 1 h ([4]; USP buffer with acetic acid/sodium acetate, pH 2.9, aqueous buffer, pH 2.9, acetic acid/sodium acetate 1.0 M, 25° C., read-out: Solubility at 1 hr): 213 mg/mL
solubility at 1 h ([4]; USP buffer with acetic acid/sodium acetate, pH 3.1, aqueous buffer, pH 3.1, acetic acid/sodium acetate 0.5 M, 25° C., read-out: Solubility at 1 hr): 126 mg/mL
solubility at 1 h ([4]; USP buffer with acetic acid/sodium acetate, pH 3.2, aqueous buffer, pH 3.2, acetic acid/sodium acetate 2.0 M, 25° C., read-out: Solubility at 1 hr): 152 mg/mL
solubility at 1 h ([4]; USP buffer with acetic acid/sodium acetate, pH 3.9, aqueous buffer, pH 3.9, acetic acid/sodium acetate 1.0 M, 25° C., read-out: Solubility at 1 hr): 237 mg/mL
solubility at 1 h ([4]; USP buffer with acetic acid/sodium acetate, pH 3.9, aqueous buffer, pH 3.9, acetic acid/sodium acetate 2.0 M, 25° C., read-out: Solubility at 1 hr): 273 mg/mL
solubility at 1 h ([4]; USP buffer with acetic acid/sodium acetate, pH 4.2, aqueous buffer, pH 4.2, acetic acid/sodium acetate 0.5 M, 25° C., read-out: Solubility at 1 hr): 158 mg/mL
solubility at 1 h ([4]; USP buffer with acetic acid/sodium acetate, pH 4.7, aqueous buffer, pH 4.7, acetic acid/sodium acetate 2.0 M, 25° C., read-out: Solubility at 1 hr): 271 mg/mL
solubility at 1 h ([4]; USP buffer with acetic acid/sodium acetate, pH 4.8, aqueous buffer, pH 4.8, acetic acid/sodium acetate 1.0 M, 25° C., read-out: Solubility at 1 hr): 235 mg/mL
solubility at 1 h ([4]; USP buffer with acetic acid/sodium acetate, pH 5.7, aqueous buffer, pH 5.7, acetic acid/sodium acetate 1.0 M, 25° C., read-out: Solubility at 1 hr): 212 mg/mL
solubility at 1 h ([4]; USP buffer with acetic acid/sodium acetate, pH 5.9, aqueous buffer, pH 5.9, acetic acid/sodium acetate 2.0 M, 25° C., read-out: Solubility at 1 hr): 244 mg/mL
solubility at 1 h ([4]; USP buffer with acetic acid/sodium acetate, pH 6.9, aqueous buffer, pH 6.9, acetic acid/sodium acetate 1.0 M, 25° C., read-out: Solubility at 1 hr): 207 mg/mL
solubility at 1 h ([4]; USP buffer with acetic acid/sodium acetate, pH 6.9, aqueous buffer, pH 6.9, acetic acid/sodium acetate 2.0 M, 25° C., read-out: Solubility at 1 hr): 225 mg/mL
solubility at 1 h ([4]; USP buffer with acetic acid/sodium acetate, pH 7.7, aqueous buffer, pH 7.7, acetic acid/sodium acetate 1.0 M, 25° C., read-out: Solubility at 1 hr): 205 mg/mL
solubility at 1 h ([4]; USP buffer with acetic acid/sodium acetate, pH 7.8, aqueous buffer, pH 7.8, acetic acid/sodium acetate 2.0 M, 25° C., read-out: Solubility at 1 hr): 212 mg/mL
solubility at 1 h ([4]; USP buffer with acetic acid/sodium acetate, pH 8.2, aqueous buffer, pH 8.2, acetic acid/sodium acetate 0.5 M, 25° C., read-out: Solubility at 1 hr): 125 mg/mL
solubility at 1 h ([4]; USP buffer with acetic acid/sodium acetate, pH 8.9, aqueous buffer, pH 8.9, acetic acid/sodium acetate 0.5 M, 25° C., read-out: Solubility at 1 hr): 50 mg/mL
solubility at 1 h ([4]; USP buffer with acetic acid/sodium acetate, pH 8.9, aqueous buffer, pH 8.9, acetic acid/sodium acetate 1.0 M, 25° C., read-out: Solubility at 1 hr): 102 mg/mL
solubility at 1 h ([4]; USP buffer with acetic acid/sodium acetate, pH 9, aqueous buffer, pH 9.0, acetic acid/sodium acetate 2.0 M, 25° C., read-out: Solubility at 1 hr): 159 mg/mL
solubility at 1 h ([4]; acetic acid/sodium acetate buffer, pH 3, aqueous buffer, pH 3.0, acetic acid/sodium acetate 0.1 M, 25° C., read-out: Solubility at 1 hr): 20 mg/mL
solubility at 1 h ([4]; acetic acid/sodium acetate buffer, pH 3.8, aqueous buffer, pH 3.8, acetic acid/sodium acetate 0.1 M, 25° C., read-out: Solubility at 1 hr): 35 mg/mL
solubility at 1 h ([4]; acetic acid/sodium acetate buffer, pH 4.6, aqueous buffer, pH 4.6, acetic acid/sodium acetate 0.1 M, 25° C., read-out: Solubility at 1 hr): 36 mg/mL
solubility at 1 h ([4]; acetic acid/sodium acetate buffer, pH 4.7, aqueous buffer, pH 4.7, acetic acid/sodium acetate 0.5 M, 25° C., read-out: Solubility at 1 hr): 156 mg/mL
solubility at 1 h ([4]; acetic acid/sodium acetate buffer, pH 5.6, aqueous buffer, pH 5.6, acetic acid/sodium acetate 0.5 M, 25° C., read-out: Solubility at 1 hr): 123 mg/mL
solubility at 1 h ([4]; acetic acid/sodium acetate buffer, pH 6, aqueous buffer, pH 6.0, acetic acid/sodium acetate 0.1 M, 25° C., read-out: Solubility at 1 hr): 36 mg/mL
solubility at 1 h ([4]; acetic acid/sodium acetate buffer, pH 6.7, aqueous buffer, pH 6.7, acetic acid/sodium acetate 0.1 M, 25° C., read-out: Solubility at 1 hr): 31 mg/mL
solubility at 1 h ([4]; acetic acid/sodium acetate buffer, pH 6.8, aqueous buffer, pH 6.8, acetic acid/sodium acetate 0.5 M, 25° C., read-out: Solubility at 1 hr): 133 mg/mL
solubility at 1 h ([4]; acetic acid/sodium acetate buffer, pH 8.2, aqueous buffer, pH 8.2, acetic acid/sodium acetate 0.1 M, 25° C., read-out: Solubility at 1 hr): 31 mg/mL
solubility at 1 h ([4]; acetic acid/sodium acetate buffer, pH 9.4, aqueous buffer, pH 9.4, acetic acid/sodium acetate 0.1 M, 25° C., read-out: Solubility at 1 hr): 34 mg/mL
solubility at 1 h ([4]; acetic acid/sodium acetate ion mixtures, aqueous buffer, at acetate concentrations of 1.0 M and higher, read-out: solubility): > 200 mg/mL
solubility at 1 h ([5]; L-arginine mixtures, at L-arginine concentrations of 0.5 M and higher, read-out: solubility): > 200 mg/mL
solubility at 1 h ([5]; USP buffer with L-arginine, L-arginine 0.05 M, 25° C., read-out: Solubility at 1 hr): 39 mg/mL
solubility at 1 h ([5]; USP buffer with L-arginine, L-arginine 0.1 M, 25° C., read-out: Solubility at 1 hr): 82 mg/mL
solubility at 1 h ([5]; USP buffer with L-arginine, L-arginine 0.5 M, 25° C., read-out: Solubility at 1 hr): 226 mg/mL
solubility at 1 h ([6]; USP buffer with citric acid/sodium citrate, citric acid/sodium citrate 0.05 M, 25° C., read-out: Solubility at 1 hr): 121 mg/mL
solubility at 1 h ([6]; USP buffer with citric acid/sodium citrate, citric acid/sodium citrate 0.1 M, 25° C., read-out: Solubility at 1 hr): 159 mg/mL
solubility at 1 h ([6]; USP buffer with citric acid/sodium citrate, citric acid/sodium citrate 0.5 M, 25° C., read-out: Solubility at 1 hr): 240 mg/mL
solubility at 1 h ([6]; USP buffer with citric acid/sodium citrate, citric acid/sodium citrate 1.0 M, 25° C., read-out: Solubility at 1 hr): 245 mg/mL
solubility at 1 h ([6]; citric acid/sodium citrate ion mixtures, at citrate concentrations of 0.5 M and higher, read-out: solubility): > 200 mg/mL
solubility ([7]; USP buffers, 25 °C, over pH about 3 to about 8, 0.05 M): 25 to 36 mg/mL
solubility at 1 h ([7]; pH 1.2): 6 mg/mL
solubility at 3 h ([7]; pH 1.2): 6 mg/mL
solubility at 1 h ([7]; pH 1.9): 9 mg/mL
solubility at 3 h ([7]; pH 1.9): 9 mg/mL
solubility at 1 h ([7]; pH 2.9): 27 mg/mL
solubility at 3 h ([7]; pH 2.9): 27 mg/mL
solubility at 1 h ([7]; pH 3.7): 36 mg/mL
solubility at 3 h ([7]; pH 3.7): 29 mg/mL
solubility at 1 h ([7]; pH 5.3): 26 mg/mL
solubility at 3 h ([7]; pH 5.3): 26 mg/mL
solubility at 1 h ([7]; pH 5.9): 34 mg/mL
solubility at 3 h ([7]; pH 5.9): 29 mg/mL
solubility at 1 h ([7]; pH 7.3): 25 mg/mL
solubility at 3 h ([7]; pH 7.3): 24 mg/mL
solubility at 1 h ([7]; pH 8.0): 29 mg/mL
solubility at 3 h ([7]; pH 8.0): 24 mg/mL
solubility at 1 h ([7]; pH 9.0): 16 mg/mL
solubility at 3 h ([7]; pH 9.0): 12 mg/mL
